In ChEMBL document CHEMBL4118102 (J Med Chem, 2018):

Tests used:
[1] = target: Neuraminidase (Influenza A virus (A/Memphis/1/1971(H3N2)), UniProt P03471, E119V); design: species or system Influenza A virus (A/Fukui/45/2004(H3N2))
[2] = target: Neuraminidase (Influenza A virus (A/Memphis/1/1971(H3N2)), UniProt P03471, E119V); design: species or system Influenza A virus (A/Fukui/45/2004(H3N2)); remark: listed apart in the source

SMILES | IC50 [1] | IC50 [2]
CC(=O)N[C@@H]1C[C@@H](F)[C@](F)(C(=O)O)O[C@H]1[C@H](O)[C@H](O)CO | 3.67 µM | 3.71 µM
CC(=O)N[C@@H]1[C@@H](O)[C@@H](F)[C@](F)(C(=O)O)O[C@H]1[C@H](O)CCO | 4.4 µM | 25.1 µM
